According to PMC6916368, “Cell‐Based Optimization of Covalent Reversible Ketoamide Inhibitors Bridging the Unprimed to the Primed Site of the Proteasome β5 Subunit” (Chemmedchem, 2019):

Columns and labels:
[1] = molecular target: T1, β2c subunit of isolated human 20S proteasome (Homo sapiens, UniProt Q99436); assay: Proteasome inhibition assay (20 S Proteasome Assay Kit, Bz‐VGR‐AMC); assay type: biochemical; conditions: c = 1 µM, n=1; read-out: Inhibition cCP β2
T1 construct: purchased Enzo Life Sciences
Outline: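 Isolated 20S proteasome (200 ng/well) was preincubated 30 min with inhibitor, then Bz-VGR-AMC (100 μM final) was added for 60 min and fluorescence read. Single-point residual activity was taken at 100 nM or 1 μM; IC50 was fitted from duplicates, mean of three independent experiments.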

MV4‐11 cells = assay: Cell viability endpoint assay (Celltiter Blue, 72 h); assay type: cell-based; conditions: Homo sapiens, MV4-11, mean±SD from two independent experiments
Outline: (§1)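 Proteasome inhibitors were tested at 1 nM to 10 μM final on 50.000 cells/well in RPMI-1640 with 0.1 % FBS, plated overnight beforehand, at 37 °C and 5 % CO2. Reagent was incubated 120 minutes before the fluorescence read. IC50 came from a sigmoidal fit of technical triplicates, as the mean of two independent experiments.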

THP‐1 cells [2] = assay: as above; assay type: cell-based; conditions: Homo sapiens, mean±SD from two independent experiments
Outline: as §1

Jurkat cells = assay: as above; assay type: cell-based; conditions: Homo sapiens, mean±SD from two independent experiments
Outline: as §1

[3] = molecular target: T2, β5c subunit of isolated human 20S proteasome (Homo sapiens, UniProt P28074); assay: Proteasome inhibition assay (20 S Proteasome Assay Kit, Suc‐LLVY‐AMC); assay type: biochemical; conditions: for inhibition at 1 µM: c = 1 µM, n=1, read-out: Inhibition cCP β5; for inhibition at 0.1 µM: c=100 nM, read-out: Rel. Inhibition β5c; for IC50: purified proteasome; for Fold‐IC50 β5i/β5c: selectivity β5c over β5i
T2 construct: purchased Enzo Life Sciences
Outline: (§2)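 Isolated human 20S proteasome (200 ng/well) preincubated 30 min with inhibitor, then 100 μM final Suc-LLVY-AMC (β5c, β5i) or Z-LLE-AMC (β1c) added for 60 min; fluorescence read. Residual activity at 100 nM final (n=3; β5c, β5i) or 1 μM (n=1, incl. β1c). IC50s: technical duplicates, mean of three experiments.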

[4] = molecular target: T3, β5i subunit of isolated human 20S proteasome (Homo sapiens, UniProt P28062); assay: as above; assay type: biochemical; conditions: for inhibition at 1 µM: c = 1 µM, n=1, read-out: Inhibition iCP β5; for inhibition at 0.1 µM: c=100 nM, read-out: Rel. Inhibition β5i; for IC50: purified proteasome
T3 construct: purchased Enzo Life Sciences
Outline: as §2

Danio rerio embryos = assay: Danio rerio embryo toxicity assay (not dechorionated); assay type: in vivo
Procedure: Danio rerio embryo toxicity assay. Fish keeping protocols are approved by the Darmstadt administrative authority and documented. All fish were treated humanely. […] Embryos were decollated into separate wells containing a total volume of 200 μL and the inhibitor at the given concentration.

[5] = molecular target: T4, β1c subunit of isolated human 20S proteasome (Homo sapiens, UniProt P28072); assay: Proteasome inhibition assay (20 S Proteasome Assay Kit, Z‐LLE‐AMC); assay type: biochemical; conditions: c = 1 µM, n=1; read-out: Inhibition cCP β1
T4 construct: purchased Enzo Life Sciences
Outline: as §2

in vitro = assay type: cell-based; conditions: human
Procedure: (§3) Remarkably, in THP‐1 cells the initial cytotoxicity is increasing for 3 compared to 27 until 14 h treatment (9‐fold) but is approaching to the end of the assay.
(§4) Time‐dependent determination of cell viability. For the determination of time‐dependent cytotoxic activity 5.000 cells per well were plated in a white 384 well‐plate in RPMI‐1640 medium supplemented with 0.1 % FBS. Real‐Time Glo MT cell viability assay (Promega) and inhibitor were added to the final concentration and luminescence was determined using a Tecan M1000 microplate reader at the time points indicated (SI chapter 2b, Figure S9–S17, Table S2).

THP‐1 cells [6] = assay type: cell-based
Procedure: as §3, §4

[7] = system: proteasome in MV4‐11 cells; assay: In‐cell determination of proteasome IC50 (conversion of substrate 30); assay type: cell-based; conditions: MV4-11, without pre‐incubation
Procedure: In‐cell determination of proteasome IC 50. […] Substrate was added to give a final concentration of 30 μM and substrate conversion was detected by fluorescence measurement over 100 min (assay validation) or 60 min (inhibition assays) using a Tecan M1000 microplate reader. Rate of fluorescence change over time was calculated, rates for negative (no‐cell) control was subtracted and normalized to positive control (no inhibitor).

Row | Compound | inhibition at 1 µM [1] [%] | IC50 (MV4‐11 cells) [nM] | IC50 (THP‐1 cells [2]) [nM] | IC50 (Jurkat cells) [nM] | inhibition at 1 µM [3] [%] | inhibition at 0.1 µM [3] [%] | inhibition at 1 µM [4] [%] | inhibition at 0.1 µM [4] [%] | Survival of embryos (not dechorionated) (Danio rerio embryos; 1 µM, 24 h) [%] | Survival of embryos (not dechorionated) (Danio rerio embryos; 1 µM, 48 h) [%] | Survival of embryos (not dechorionated) (Danio rerio embryos; 1 µM, 72 h) [%] | Survival of embryos (not dechorionated) (Danio rerio embryos; 1 µM, 96 h) [%] | Survival of embryos (not dechorionated) (Danio rerio embryos; 5 µM, 24 h) [%] | Survival of embryos (not dechorionated) (Danio rerio embryos; 5 µM, 48 h) [%] | Survival of embryos (not dechorionated) (Danio rerio embryos; 5 µM, 72 h) [%] | Survival of embryos (not dechorionated) (Danio rerio embryos; 5 µM, 96 h) [%] | Survival of embryos (not dechorionated) (Danio rerio embryos; 10 µM, 24 h) [%] | Survival of embryos (not dechorionated) (Danio rerio embryos; 10 µM, 48 h) [%] | Survival of embryos (not dechorionated) (Danio rerio embryos; 10 µM, 72 h) [%] | Survival of embryos (not dechorionated) (Danio rerio embryos; 10 µM, 96 h) [%] | further results
1 | CC(C)C[C@H](NC(=O)OCc1ccccc1)C(=O)N[C@@H](CC(C)C)C(=O)N[C@@H](CC(C)C)C(=O)C(=O)Nc1cccc(Oc2ccccc2)c1 [Compound 9, Benzyl‐((S)‐4‐methyl‐1‐(((S)‐4‐methyl‐1‐(((S)‐5‐methyl‐1,2‐dioxo‐1‐((3‐phenoxyphenyl)‐amino)hexan‐3‐yl)amino)‐1‐oxopentan‐2‐yl)amino)‐1‐oxopentan‐2‐yl)carbamate] | 9 | 18 ± 3 | 30 ± 10 | 24 ± 4 | 81 | 56 | 31 | 23 | 100 | 100 | 100 | 100 | 100 | 100 | 100 | 100 | 100 | 100 | 100 | 100 | IC50 [3]: 66 nM; Fold‐IC50 β5i/β5c [3]: 2.6; IC50 [4]: 170 nM; Survival of embryos (not dechorionated) (Danio rerio embryos; 25 µM, 24 h): 100%; Survival of embryos (not dechorionated) (Danio rerio embryos; 25 µM, 48 h): 100%; Survival of embryos (not dechorionated) (Danio rerio embryos; 25 µM, 72 h): 100%; Survival of embryos (not dechorionated) (Danio rerio embryos; 25 µM, 96 h): 100%; inhibition at 1 µM [5]: 0%
2 | CC(C)C[C@H](NC(=O)[C@H](CCc1ccccc1)NC(=O)CN1CCOCC1)C(=O)N[C@@H](Cc1ccccc1)C(=O)N[C@@H](CC(C)C)C(=O)[C@@]1(C)CO1 [Carfilzomib 3, Carfilzomib] | 37 | 3.6 ± 1.8 | 135 ± 39 | 14 ± 3 | 96 | 86 | 91 | 43 | 100 | 100 | 100 | 100 | 100 | 100 | 100 | 100 | 100 | 100 | 100 | 100 | IC50 at 13 h (in vitro): 50 to 400 nM; Survival of embryos (not dechorionated) (Danio rerio embryos; 25 µM, 24 h): 100%; Survival of embryos (not dechorionated) (Danio rerio embryos; 25 µM, 48 h): 100%; Survival of embryos (not dechorionated) (Danio rerio embryos; 25 µM, 72 h): 100%; Survival of embryos (not dechorionated) (Danio rerio embryos; 25 µM, 96 h): 100%; inhibition at 1 µM [5]: -18%; cytotoxicity of 3 compared to 27 (THP‐1 cells [6]): 9 fold
3 | Cc1ccc(NC(=O)C(=O)C(CC(C)C)NC(=O)C(CC(C)C)NC(=O)C(CC(C)C)NC(=O)OCc2ccccc2)c(C)c1 (stereo not drawn) [Compound 7, BSc4999] | 9 | 19 ± 3 | 24 ± 0.1 | 30 ± 0.3 | 92 | 64 | 74 | 33 | 100 | 100 | 100 | 100 | 100 | 100 | 100 | 100 | 100 | 100 | 100 | 100 | fold more potent than 9 (in-cell conversion of 30) [7]: 4 fold; IC50 [3]: 48 nM; Fold‐IC50 β5i/β5c [3]: 4.3; IC50 [4]: 204 nM; Survival of embryos (not dechorionated) (Danio rerio embryos; 25 µM, 24 h): 80%; Survival of embryos (not dechorionated) (Danio rerio embryos; 25 µM, 48 h): 80%; Survival of embryos (not dechorionated) (Danio rerio embryos; 25 µM, 72 h): 80%; Survival of embryos (not dechorionated) (Danio rerio embryos; 25 µM, 96 h): 80%; inhibition at 1 µM [5]: -26%
